Tests used:
[1] = system: cerebellum-injured rat by administration of Ara-C; assay: Experiment 2: effect of improving ataxia on cerebellum-injured rat by administration of Ara-C (fall index, open-field method); format: in vivo, Sprauge-Dawley rats; conditions: for effect on improvement of ataxia (fall index): oral once a day for seven days, 24 hours after final administration, FIG. 2; for dosage ratio giving the same level efficacy versus Compound (I-1): oral, repeated administration
Procedure: Experiment 2 Effect of improving ataxia on cerebellum-injured rat by administration of Ara-C
Ara-C (60 mg/kg, Nippon Shinyaku) was subcutaneously administered to Sprauge-Dawley rats (CLEA Japan, Inc) of 2 days old and 3 days old, and the effects of improving ataxia on Compound (I-1), Control Compound 1 and Control Compound 2 at 4 weeks old were investigated.
The effect of improving on ataxia was evaluated with a fall index by an open-field method. Rats were left in the center of an open-filed (circle open-filed, 75 cm in a diameter, 25 divisions), number of divisions passed and numbers of falls for 3 minutes were counted, and a fall index (numbers of falls/number of divisions passed) was calculated.
Each of the compounds was dissolved in a physiological saline on the day of administration. Each compound was orally administered to rats using a sonde for oral administration at the following dosage; Compound (I-1): 0.1 mg/kg, 0.3 mg/kg, 1 mg/kg and 3 mg/kg, Control Compound 1: 30 mg/kg and 100 mg/kg, Control Compound 2: 100 mg/kg and 300 mg/kg. Physiological saline alone was administered to rats as a control group. The compounds were repetitively orally administered one a day for seven days and the effect was investigated 24 hours after the final administration. Volume for oral administration was 0.1 mL per 100 g body weight of a rat. Sample numbers were 5 or more in every group.

Rolling Mouse Nagoya [2] = assay: Experiment 1: effect of improving ataxia on Rolling Mouse Nagoya (fall index, open-field method); format: in vivo; conditions: for effect on improvement of ataxia (fall index): 1 hour after administration, FIG. 1
From the text: Experiment 1 Effect of improving ataxia on Rolling Mouse Nagoya
Rolling Mouse Nagoya, a hereditary ataxia mouse, is known as a model mouse for spinocerebellar ataxia and has been reported in many papers (E. Kurihara, N. Fukuda, S. Narumi, T. Matsuo, S. Saji, and Y. Nagawa, Jpn. Pharmacol., Ther., 13, 49-56 (1985), Y. Mano, K. Matsui, E. Toyoshima, and K. Ando, Acta. Neurol. Scand., 73, 352-358 (1986), K. Kinoshita, T. Fujitsuka, M. Yamamura, and Y. Matsuoka, Eur. J. Pharmacol., 274, 65-72 (1995), K. Kinoshita, T. Fukushima, Y, Kodama, J. Sugihara, M. Yamamura, and Y. Matsuoka, Biol. Pharm. Bull., 20, 36-39 (1997)).
Effect of Compound (I-1) for ataxia of Rolling Mouse Nagoya was investigated. The following compounds in Patent Literature 1 and Non-Patent Literature 1 were used as Control Compounds 1 and 2.
An effect on improvement of ataxia was evaluated with a fall index by an open-field method. Mice were left in the center of an open-field (circle open-field, 75 cm in a diameter, 25 divisions). Number of divisions passed and numbers of falls for 5 minutes were counted, and a fall index (numbers of falls/number of divisions passed) was calculated.
Each of the compounds was dissolved in a physiological saline on the day of the experiment. Each compound was orally administered to mice using a sonde for oral administration at the following dosage; Compound (I-1): 1 mg/kg and 3 mg/kg, Control Compound 1: 30 mg/kg and 100 mg/kg, Control Compound 2: 100 mg/kg and 300 mg/kg. Physiological saline alone was administered to mice as a control group. Volume for oral administration was 0.2 mL per 20 g body weight of a mouse.
Effect on improvement of ataxia for each mouse was evaluated 1 hour after administration by the open-field method. Sample numbers were 5 or more in every group.

Rolling Mouse Nagoya [3] = assay: Experiment 3: effect of improving ataxia on Rolling Mouse Nagoya (fall index, square open-field); format: in vivo; conditions: oral 100 mg/kg, 1 hour after administration, FIG. 3
Procedure: Experiment 3 Effect of improving ataxia on Rolling Mouse Nagoya
Effects of the compounds described in Patent Literature 8 (I-3: R=CN, I-1: R=CONH2) and Control Compound 2 on ataxia on Rolling Mouse Nagoya were investigated.
The effect on ataxia was evaluated with a fall index by an open-field method. Mice were left in the center of an open-field (square open-field, 100 cm×100 cm, divided into 25 squares of 20 cm×20 cm), number of squares passed and numbers of falls for 10 minutes were counted, and a fall index (numbers of falls/number of squares passed) was calculated.
Each of the compounds was dissolved in a physiological saline on the day of the experiment. Each compound was orally administered to mice using a sonde for oral administration at the following dosage; Compounds (I-3) and (I-4): 10 mg/kg, Control Compound 2: 100 mg/kg. Volume for oral administration was 0.2 mL per 20 g body weight of a mouse.
Each of the test compound was orally administered just after a fall index of each mouse in the open-field was calculated. A fall index was calculated again 1 hour after administration and the effect of improving ataxia was evaluated. Sample numbers were 5 or more in every group.

[4] = oral, comparison of effective doses

Row | Compound | effect on improvement of ataxia (fall index) ([1]; 0.3 mg/kg or more) | effect on improvement of ataxia (fall index) (Rolling Mouse Nagoya [2]; oral 3 mg/kg) | effect of improving ataxia relative to Control Compound 1 (Rolling Mouse Nagoya [2]; [4]) [times] | effect of improving ataxia relative to Control Compound 2 (Rolling Mouse Nagoya [2]; [4]) [times] | effect of improving ataxia (fall index before vs after administration) (Rolling Mouse Nagoya [3]) | effect on improvement of ataxia (fall index) ([1]; even at 300 mg/kg) | dosage ratio giving the same level efficacy versus Compound (I-1) [1] | effect on improvement of ataxia (fall index) (Rolling Mouse Nagoya [2]; oral, even at 300 mg/kg (100 and 300 mg/kg tested)) | effect on improvement of ataxia (fall index) ([1]; only at 100 mg/kg (30 and 100 mg/kg tested)) | effect on improvement of ataxia (fall index) (Rolling Mouse Nagoya [2]; oral, only at 100 mg/kg (30 and 100 mg/kg tested))
1 | C[C@@H]1OC(=O)N[C@@H]1C(=O)N[C@@H](Cc1cscn1)C(=O)N1CCC[C@H]1C.O.O.O [Compound (I-1)] | superior effect on improvement of ataxia to Control Compounds | superior effect on improvement of ataxia | ≥ 30 | ≥ 100 |  |  |  |  |  | 
2 | NC(=O)[C@H]1CCCN1C(=O)[C@@H](Cc1c[nH]cn1)NC(=O)[C@@H]1CCC(=O)N1 [Control Compound 2] |  |  |  |  | weak improvement effect | does not show the improvement effect | 1/1000 | does not show the improvement effect |  | 
3 | CN1C(=O)C[C@H](C(=O)N[C@H](Cc2c[nH]cn2)C(=O)N2CCC[C@@H]2C(N)=O)NC1=O [Control Compound 1] |  |  |  |  |  |  | 1/300 |  | superior effect on improvement of ataxia in comparison of a control group | superior effect of improving ataxia to that in a control group
